The results in this text go back to ChEMBL document CHEMBL2074490, “Transport and uptake of nateglinide in Caco-2 cells and its inhibitory effect on human monocarboxylate transporter MCT1” (Br J Pharmacol, 2002).

Structures are written as SMILES.

This test concerns the target Monocarboxylate transporter 1 (Homo sapiens) (UniProt P53985). As to the kind of experiment: TP_TRANSPORTER: uptake in Xenopus laevis oocytes. As to conditions: Oocyte.

Monocarboxylate transporter 1 (Homo sapiens), sequence (P53985 whole entry, looked up): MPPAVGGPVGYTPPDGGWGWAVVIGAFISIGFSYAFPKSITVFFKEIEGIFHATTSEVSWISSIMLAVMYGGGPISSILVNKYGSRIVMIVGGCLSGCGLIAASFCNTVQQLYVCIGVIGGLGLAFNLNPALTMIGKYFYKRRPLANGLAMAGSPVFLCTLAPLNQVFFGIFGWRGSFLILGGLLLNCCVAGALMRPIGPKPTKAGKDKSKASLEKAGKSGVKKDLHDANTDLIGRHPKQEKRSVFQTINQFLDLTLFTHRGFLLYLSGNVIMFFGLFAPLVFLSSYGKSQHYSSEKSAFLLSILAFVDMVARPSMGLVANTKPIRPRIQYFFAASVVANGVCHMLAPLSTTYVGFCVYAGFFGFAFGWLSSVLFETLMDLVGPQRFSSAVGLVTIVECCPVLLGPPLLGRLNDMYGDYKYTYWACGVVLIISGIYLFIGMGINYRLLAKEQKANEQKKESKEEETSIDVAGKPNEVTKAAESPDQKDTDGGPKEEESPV

As for `CC(C)[C@H]1CC[C@H](C(=O)N[C@H](Cc2ccccc2)C(=O)O)CC1`, the Activity result is “is not a substrate [-]”.
